The source made the active and inactive calls. The rule behind the calls is not given here. Where a SMILES comes first, the peptide text is derived from it. [ ]: non-standard residue; d: D form. NMeV = CN[C@H](C(=O)O)C(C)C; NMeS = CN[C@@H](CO)C(=O)O; hSer = N[C@@H](CCO)C(=O)O; Abu = CC[C@H](N)C(=O)O; Aib = CC(C)(N)C(=O)O
Key:
[1] = target: T1, Disks large homolog 4 (Homo sapiens, UniProt P78352); experiment: Binding affinity to human PSD95 domain PDZ3 expressed in Escherichia coli BL21-DE3 by fluorescence polarization assay
[2] = target: T1, Disks large homolog 4; experiment: Binding affinity to human PSD95 domain PDZ1 expressed in Escherichia coli BL21-DE3 by fluorescence polarization assay
Target sequence in this assay (P78352 whole entry, the tested form may be a part): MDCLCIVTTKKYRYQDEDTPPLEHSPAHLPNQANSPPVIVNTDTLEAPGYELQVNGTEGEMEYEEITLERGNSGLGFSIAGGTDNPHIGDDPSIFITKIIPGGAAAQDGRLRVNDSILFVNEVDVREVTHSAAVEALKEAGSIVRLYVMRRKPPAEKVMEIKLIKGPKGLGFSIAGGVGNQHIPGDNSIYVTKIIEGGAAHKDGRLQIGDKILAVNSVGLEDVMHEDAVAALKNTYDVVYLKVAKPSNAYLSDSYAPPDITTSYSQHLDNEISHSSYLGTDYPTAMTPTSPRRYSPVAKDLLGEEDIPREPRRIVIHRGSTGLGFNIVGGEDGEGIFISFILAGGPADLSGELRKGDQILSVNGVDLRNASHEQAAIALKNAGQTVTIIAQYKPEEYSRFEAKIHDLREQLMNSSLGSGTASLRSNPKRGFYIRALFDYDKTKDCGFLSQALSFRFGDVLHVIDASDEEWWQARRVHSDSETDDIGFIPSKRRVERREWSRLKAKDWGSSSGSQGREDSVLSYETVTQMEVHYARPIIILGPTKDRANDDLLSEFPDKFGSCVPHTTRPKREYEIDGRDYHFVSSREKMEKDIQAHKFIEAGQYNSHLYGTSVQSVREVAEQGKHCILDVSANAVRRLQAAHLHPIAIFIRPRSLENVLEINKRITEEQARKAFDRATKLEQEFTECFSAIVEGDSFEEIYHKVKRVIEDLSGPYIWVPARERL

[3] = target: T1, Disks large homolog 4; experiment: Binding affinity to human PSD95 domain PDZ2 expressed in Escherichia coli BL21-DE3 by fluorescence polarization assay
Target sequence in this assay (P78352 whole entry, the tested form may be a part): as above

[4] = target: T1, Disks large homolog 4; experiment: Binding affinity to human PSD95 domain PDZ2 expressed in Escherichia coli BL21-DE3 by fluorescence polarization assay
Target sequence in this assay (P78352 whole entry, looked up, the tested form may be a part): as the sequence (P78352 whole entry, the tested form may be a part) above

[5] = target: T1, Disks large homolog 4; experiment: Binding affinity to human PSD95 domain PDZ1 expressed in Escherichia coli BL21-DE3 by fluorescence polarization assay
Target sequence in this assay (P78352 whole entry, looked up, the tested form may be a part): as the sequence (P78352 whole entry, the tested form may be a part) above

CC(C)[C@H](NC(=O)[C@H](C)NC(=O)[C@@H](NC(=O)[C@H](CCC(=O)O)NCCC1CCCCC1)[C@@H](C)O)C(=O)O showed a Ki [1] of 11 µM.

CN[C@@H](CCC(=O)O)C(=O)N[C@H](C(=O)N[C@@H](C)C(=O)N[C@H](C(=O)O)C(C)C)[C@@H](C)O gave a Ki [2] of 11 µM.

For CC(C)[C@H](NC(=O)[C@H](C)NC(=O)[C@@H](NC(=O)[C@H](CCC(=O)O)NCCc1ccc2ccccc2c1)[C@@H](C)O)C(=O)O, the Ki [2] was 1 µM.

CC(C)[C@H](NC(=O)[C@H](C)NC(=O)[C@@H](NC(=O)[C@H](CCC(=O)O)NCCCc1ccc(F)c(F)c1)[C@@H](C)O)C(=O)O gave a Ki [3] of 1 µM.

With CC(C)[C@H](NC(=O)[C@H](C)NC(=O)[C@@H](NC(=O)[C@H](CCC(=O)O)NCC1CCCCC1)[C@@H](C)O)C(=O)O the Ki [2] was 1 µM.

In the case of CC(C)[C@H](NC(=O)[C@H](CC(=O)O)NC(=O)[C@@H](NC(=O)[C@@H](N)CCC(=O)O)C(C)(C)CO)C(=O)O, the Activity [4] is reported as “inactive” and the Activity [5] is reported as “inactive”.

In the case of CC(C)[C@H](NC(=O)[C@H](CC(=O)O)NC(=O)[C@@H](NC(=O)[C@@H](N)CCC(=O)O)[C@H](C)CO)C(=O)O, the Activity [4] is reported as “inactive” and the Activity [5] is reported as “inactive”.

CC[C@H](C)[C@H](NC(=O)[C@H](CO)NC(=O)[C@H](CO)NC(=O)[C@H](CC(C)C)NC(=O)[C@H](CCCCN)NC(=O)[C@H](CCCNC(=N)N)NC(=O)[C@H](CCCNC(=N)N)NC(=O)[C@H](CCCNC(=N)N)NC(=O)[C@H](CCC(N)=O)NC(=O)[C@H](CCCNC(=N)N)NC(=O)[C@H](CCCNC(=N)N)NC(=O)[C@H](CCCCN)NC(=O)[C@H](CCCCN)NC(=O)[C@H](CCCNC(=N)N)NC(=O)CNC(=O)[C@@H](N)Cc1ccc(O)cc1)C(=O)N[C@@H](CCC(=O)O)C(=O)N[C@@H](CO)C(=O)N[C@@H](CC(=O)O)C(=O)N[C@H](C(=O)O)C(C)C was tested, and the Activity [1] was “inactive”.

In the case of CC[C@H](NC(=O)[C@H](CC(=O)O)NC(=O)[C@H](CO)NC(=O)[C@@H](N)CCC(=O)O)C(=O)O (H-ESD[Abu]-OH), the Activity [4] is reported as “inactive”.

For CC(C)(NC(=O)[C@H](CC(=O)O)NC(=O)[C@H](CO)NC(=O)[C@@H](N)CCC(=O)O)C(=O)O (H-ESD[Aib]-OH), the Activity [4] was “inactive” and the Activity [5] was “inactive”.

For CC(C)[C@@H](C(=O)O)N(C)C(=O)[C@H](CC(=O)O)NC(=O)[C@H](CO)NC(=O)[C@@H](N)CCC(=O)O (H-ESD[NMeV]-OH), the Activity [4] was “inactive” and the Activity [5] was “inactive”.

CC(C)[C@H](NC(=O)[C@H](CC(=O)O)NC(=O)[C@H](CO)N(C)C(=O)[C@@H](N)CCC(=O)O)C(=O)O (H-E[NMeS]DV-OH) was tested, and the Activity [4] was “inactive” and the Activity [5] was “inactive”.

In the case of CC(C)[C@H](NC(=O)[C@H](CC(=O)O)NC(=O)[C@H](CCO)NC(=O)[C@@H](N)CCC(=O)O)C(=O)O (H-E[hSer]DV-OH), the Activity [4] is reported as “inactive” and the Activity [5] is reported as “inactive”.

With H-KSGYEKLSSIESDV-OH the Activity [1] was “inactive”.

Source: ChEMBL document CHEMBL1140152, “Modified peptides as potent inhibitors of the postsynaptic density-95/N-methyl-D-aspartate receptor interaction” (J Med Chem, 2008)
